Data from article PMC11456916, “A screen for cell envelope stress uncovers an inhibitor of prolipoprotein diacylglyceryl transferase, Lgt, in Escherichiacoli” (iScience, 2024).
“Also recorded” adds a separate entry of the source.

Columns and labels:
[1] = system: E. coli ΔlgtΔtolC-pore pCHAP9231; experiment: MIC with arabinose-titrated lgt expression; format: cell-based; conditions: lgt expression driven solely by arabinose from pCHAP9231
Description: We next turned to genetic approaches to confirm the mechanism of action of MAC-0452936. […] To that end, we screened the E. coli CRISPRi collection in the ΔtolC-pore genetic background with a sub-inhibitory concentration of MAC-0452936 and measured the fitness of all 356 CRISPRi mutants (Figure 4C and Data S4). […] Depletion of Lgt by CRISPRi provided supporting evidence that MAC-0452936 targeted Lgt in E. coli; however, we sought to confirm this observation using a parallel genetic approach. We hypothesized that MAC-0452936 potency would also be affected by high-copy expression of lgt. To that end, we introduced either an arabinose inducible copy of lgt supplied on the pCHAP9231 plasmid[48] or the pBAD19s plasmid as a control into E. coli ΔtolC-pore and tested the potency of MAC-0452936 (Figure 4E). Induction of lgt expression with arabinose suppressed the activity of MAC-0452936 by about 8-fold. […] To test this hypothesis, we constructed E. coli ΔlgtΔtolC-pore with pCHAP9231[48] so that lgt expression was driven solely by arabinose from the plasmid. […] To test this observation with MAC-0452936, we introduced an lpp deletion into our screening strain E. coli ΔtolC-pore and assessed the activity of our Lgt inhibitor in this mutant background. […]

[2] = system: HEK293t cells; experiment: In vitro cytotoxicity (PrestoBlue cell viability); format: cell-based, human; conditions: 24 h
Procedure: To determine the haemolytic activity and cytotoxicity of MAC-0452936, pooled human blood and HEK293t cells were used, respectively. Fresh pooled human blood for haemolytic assay was acquired from […] Technologies, whilst, HEK293t cells were originally acquired from ATCC (Cat# CRL-3216) and were regularly grown in […] (DMEM) with 10% fetal bovine serum (FBS), L-glutamine and incubated at 37°C. Cell lines are regularly tested for mycoplasma contamination.
The cytotoxicity of MAC-0452936 on HEK293t cells was determined by performing a cell viability assay using PrestoBlue Cell Viability Reagent (Invitrogen). 3 × 10^4 cells/mL were seeded in tissue culture-treated 96-well plates (Nunc; white opaque with clear bottom) in […] (DMEM) with 10% fetal bovine serum (FBS), L-glutamine and incubated at 37°C for 24 h in 5% CO2. The cells were then treated with varying concentrations of MAC-0452936 and similar percentage of DMSO as in drug (solvent control) for 24 h at 37°C. PrestoBlue reagent (20 μL) was added to the wells and incubated for 1 h in the CO2 incubator before reading the plates at excitation/emission wavelength of 560/590 nm on the Biotek Synergy Neo2 plate reader. Fluorescence values were expressed as percentage and inhibition with respect to solvent control was calculated.

[3] = system: E. coli ΔtolC; experiment: MIC assay, E. coli ΔtolC; format: cell-based; conditions: growth inhibition, in words
Procedure: For MIC assays, cultures of bacteria were grown in LB broth. Overnight cultures were diluted (1:100) into fresh LB media and grown to the mid-log phase of growth (OD600 ∼0.5). Subcultures were then normalized to an OD600 of 0.1, and diluted (1:5000) into assay media. Assay plates were then incubated for 18 h at 37°C, then OD600 was measured using a Biotek Neo plate reader.

[4] = system: E. coli ΔtolC-pore; experiment: Selection of spontaneous resistance mutants; format: cell-based; conditions: E. coli ΔtolC-pore plated on LB agar with 4×, 8× and 16× MIC
Description: The point mutations in Lgt were the only mutations identified in all five isolates (the Illumina sequencing and BreSeq alignment files have been made available in an online data repository, https://zenodo.org/records/11068394). Lgt catalyzes the essential transfer of diacylglycerol from phosphatidyl-glycerol (PG) to the terminal cysteine of pre-prolipoproteins[48] and was also identified as a possible target in our CRISPRi screen for rcsA bioreporter induction (Figures 2E and S3). When mapped to a recently solved crystal structure of E. coli Lgt,[49] the three distinct variants identified in our resistant clones (A37T, V109A, and G138A) were found on three proximal α-helices in the substrate binding pocket of the enzyme (Figure 4B).
A culture of E. coli ΔtolC-pore was grown overnight in LB broth at 37°C with shaking, then, ∼6 × 10^8 CFU in 100 μL of LB broth was plated on LB agar plates containing 4, 8, or 16 μg/mL of MAC-0452936. Plates were then incubated at 37°C, and examined every 24 h for the emergence of resistant colonies. Colonies began to emerge after 48 h of incubation and were purified by restreaking on LB agar and LB agar containing the same concentrations of MAC-0452936 from which the colonies originally appeared. […] DNA samples were sequenced on the Illumina MiSeq platform (SeqCenter LLC) and reads were aligned to the E. coli BW25113 reference genome using Breseq[77] […]

## COc1ccc(C(=O)O/N=C(\c2cccs2)C(C)(C)C)cc1 [MAC-0452936, (Z)-2-Pivaloylthiophene O-(4-methoxybenzoyl) oxime]
[1]
  change of MIC with increasing arabinose concentrations: dose-dependent increase in the MIC; also recorded: increase with increasing
[2]
  concentrations giving a modest decrease in the viability of HEK-293 cells: greater than 8 μg/mL
[2]; at MIC concentrations
  cytotoxicity to HEK-293 cells: did not observe
[3]
  activity against E. coli ΔtolC: active
[4]
  frequency of resistance: 2 x 10^−8
  resistant isolates identified: five independent resistant isolates were generated
